Assay results: patent publication US20210393645A1, “TREATMENT FOR PROGRESSIVE MULTIPLE SCLEROSIS” (UTI LIMITED PARTNERSHIP, priority 2016, published 2021)
Where a name gives a salt, the structure may show the parent alone.

Key:
human neurons [1] = experiment: Iron (FeSO4) mediated neurotoxicity screening, MAP-2 positive neurons counted; type: cell-based
Method in brief: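 Fetal human neurons (15-20 wk), plated with cytosine arabinoside, were pre-incubated 1 h with compounds (10 mM DMSO stocks) before FeSO4 at 25-50 μM final. Cells fixed a day later; MAP-2 immunostaining plus Hoechst nuclei imaged automatically, sites per well averaged; quadruplicates.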

microglia = details: shown previously; cited from earlier work
human neurons [2] = experiment: Live cell imaging of propidium iodide positive neurons challenged with FeSO4; type: cell-based; details: FeSO4 50 μM, pre-treatment 1 h
Description: Neurons were prepared as described above. Directly after the addition of FeSO4 to healthy neurons, the live cell-permeant Hoechst 33342 (1:2 diluted in AIM-V medium, nuclear blue; ThermoFisher Scientific, Grand Island, NY, USA) and the live cell-impermeable propinium iodide (PI, 1:20 diluted in AIM-V medium) were added in a volume of 20 μI (Sigma-Aldrich). In compromised cells, PI could now diffuse across the plasma membrane. Live cell imaging was performed using the automated ImageXpress® imaging system under controlled environmental conditions (37° C. and 5% CO2). Images were taken from 9 sites per well at baseline and then every 30 min for 12h. After export with MetaXpress®, videos were edited with ImageJ (NIH) in a uniform manner. Nuclei were pseudo colored in cyan, PI-positive cells in red.
Live cell imaging over 12 h supported the neuroprotective effects of drugs. We selected indapamide and desipramine for live imaging studies.

B-cells = experiment: TNF-α release of activated B-cells (ELISA); type: cell-based, human; details: BCR/anti-CD40L/IL-4 activation
Description: Venous blood from healthy volunteers was obtained and peripheral blood mononuclear cells (PBMCs) were isolated by Ficoll gradient centrifugation (1800 RPM, 30 min). From PBMCs, B-cells were isolated by positive selection with CD19 directed microbeads (Stemcell Technologies). Purity was assessed by FACS after staining for CD19 (Stemcell Technologies). Cells were plated in a concentration of 2.5×10^5 cells/well in X-VIVO™ medium (Lonza) supplemented with 1% penicillin/streptomycin and 1% Glutamax and treated with drugs for 1 h. […] Medium as well as respective drugs were re-added followed by application of ^3H-thymidine in a concentration of 1 μCi per well to investigate proliferation.

T-cells = experiment: Proliferation of T-lymphocytes (3H-thymidine) in anti-CD3/anti-CD28 activated splenocytes; type: cell-based, mouse; details: concentration response
[3] = system: Ifng, Tnfa, Il-17 and Ccl2 transcripts; experiment: RT-PCR of inflammatory transcripts in lumbar spinal cord of EAE mice; type: in vivo, mouse; details: 25 mg/kg IP from day 0, sacrifice day 15
Description: Lumbar spinal cords were harvested, snap frozen in liquid nitrogen and stored in -80° C. Samples were homogenized in 1 ml Trizol followed by the addition of 200 μI chloroform. […] RNA was extracted using the RNeasy Mini Kit according to the manufacturer's instruction (Qiagen). RNA concentrations were measured using a Nanodrop (Thermo Fisher Scientific). cDNA preparation was performed using the RT2 First Strand kit (Qiagen) with 1μg of RNA according to the manufacturer's instructions. Real time PCR was performed using the QuantStudio 6 Flex (Applied Biosystems by Life Technologies) with FAST SYBR Green and primers for Gapdh (Qiagen) as housekeeping gene, lfn-γ (Qiagen, QT01038821), Tnfa (Qiagen, QT00104006), II-17 (SABiosciences, PPM03023A-200) and CcI2 (Qiagen, QT00167832). Relative expression was calculated using the ΔΔCT method with Gapdh as housekeeping gene. Data were normalized to gene expression in naïve mice.

SMILES: CN(C)CCCN1c2ccccc2CCc2ccc(Cl)cc21 [CLOMIPRAMINE HYDROCHLORIDE]
- viability at 10 µM (human neurons [1]; Homo sapiens, Neuron, drug 10 μM 1 h before FeSO4 25 or 50 μM, MAP-2 neurons after 24 h, read-out: Drug % control (mean): number of neurons normalized to untreated control): 107%
- concentration from which neuroprotection against iron toxicity is significant (human neurons [1]; concentration response): 100 nM
- Drug % control (mean): number of neurons normalized to untreated control (human neurons [1]; drug 10 μM 1 h before FeSO4 25 or 50 μM, MAP-2 neurons after 24 h, HYDROCHLORIDE): 107.30%
- protection from FeSO4-mediated neurotoxicity (in words) (human neurons [1]; drug 10 μM, human neurons): strong protection
- microglia inhibitory activity (microglia): did not have microglia inhibitory activity
- number of PI-positive neurons in response to FeSO4 over 12 h (human neurons [2]): attenuated
- concentration from which production of TNF-α of activated B-cells is reduced (B-cells): 2 µM
- concentration from which T-lymphocyte proliferation is significantly reduced (T-cells): 5 µM
- elevation of transcripts encoding Ifng, Tnfa, Il-17 and Ccl2 in spinal cord [3]: abrogated
